Earlier results, collected in patent US7288243B2, “Aerosol drug inhibition of lung metastases” (Research Development Foundation, priority 2002, dated 2007).

Details: concurrent administration of cyclosporin; clinical studies

For CC(=O)O[C@H]1C(=O)[C@@]2(C)[C@H]([C@H](OC(=O)c3ccccc3)[C@]3(O)C[C@H](OC(=O)[C@H](O)[C@@H](NC(=O)c4ccccc4)c4ccccc4)C(C)=C1C3(C)C)[C@]1(OC(C)=O)CO[C@@H]1C[C@@H]2O [paclitaxel], which “Increase of bioavailability of paclitaxel administered orally” value is on record?
Its value is 9 fold.
